The record followed here is US8557738B2, “Nitrogen-containing heterocyclic derivative and fungicide for agricultural and horticultural use” (Nippon Soda Co., Ltd., priority 2008, dated 2013).

Test system in one data set: not given
Test: not given
Settings: not given
In general, melting point refers to the temperature, or range, at which the solid turns liquid. Molecule `Cc1cc(C2=NCCOc3c(Cl)cccc32)cnc1C` displayed a melting point of 142 to 143 °C.

`CC1(C)CN=C(c2cnc3ccccc3c2)c2cccc(Cl)c2O1.Cl` returned a melting point of 149 to 151 °C.

Molecule `CC1(C)CN=C(c2cnc3ccccc3c2)c2cccc(Cl)c2O1.O=C(O)C(F)(F)F` came in with a melting point of 129 to 131 °C.

On to `CC1(C)CN=C(c2cnc3c(F)cccc3c2)c2cccc(F)c2O1.O=C(O)C(F)(F)F`, for which the melting point was in the range of 174 to 176 °C.

For the molecule `CC1(C)CN=C(c2cnc3c(F)cccc3c2)c2cccc(F)c2O1.Cl`, the melting point lay within 164 to 166 °C.

Turning to `Fc1cccc2c1C(c1cnc3ccccc3c1)=NCCO2`, the melting point is 126 to 128 °C.

For `c1ccc2c(c1)OCCN=C2c1cnc2ccccc2c1` [B1-1, 5-(3-Quinolinyl)-2,3-dihydro-benzo[f][1,4]oxazepine], the melting point fell in the range of 115 to 117 °C.

`CC1(Cl)CN=C(c2cnc3ccccc3c2)c2cccc(F)c2O1` (stereo not drawn) [B1-30, 2-Chloro-9-fluoro-2-methyl-5-(3-quinolinyl)-2,3-dihydro-benzo[f][1,4]oxazepine] had a melting point of 123 to 125 °C.

`CC1(C)CN=C(c2cnc3c(F)cccc3c2)c2ccccc2O1` [B1-37, 5-(8-Fluoro-quinolin-3-yl)-2,2-dimethyl-2,3-dihydro-benzo[f][1,4]oxazepine] had a melting point of 165 to 167 °C.

The molecule `CC1(C)CN=C(c2cnc3c(F)cccc3c2)c2cccc(F)c2O1` [B1-38, 2,2-Dimethyl-9-fluoro-5-(8-fluoro-quinolin-3-yl)-2,3-dihydro-benzo[f][1,4]oxazepine] gave a melting point of 171 to 173 °C.

As to `CC1(C)CN=C(c2cnc3c(F)cccc3c2)c2cccc(Cl)c2O1` [B1-39, 9-Chloro-5-(8-fluoro-quinolin-3-yl)-2,2-dimethyl-2,3-dihydro-benzo[f][1,4]oxazepine], the melting point was 190 to 191 °C.

Molecule `Cc1cccc2cc(C3=NCC(C)(C)Oc4c(Cl)cccc43)cnc12` [B1-40, 9-Chloro-2,2-dimethyl-5-(8-methylquinolin-3-yl)-2,3-dihydro-benzo[f][1,4]oxazepine] displayed a melting point of 145 to 147 °C.

For `CC1(C)CN=C(c2cnc3c(Cl)cccc3c2)c2cccc(Cl)c2O1` [B1-41, 2,2-Dimethyl-9-chloro-5-(8-chloro-quinolin-3-yl)-2,3-dihydro-benzo[f][1,4]oxazepine], the melting point is 214 to 217 °C.

For `CC1N=C(c2cnc3ccccc3c2)c2ccccc2OC1(C)C` (stereo not drawn) [B1-42, 5-(3-Quinolinyl)-2,2,3-trimethyl-2,3-dihydro-benzo[f][1,4]oxazepine], the melting point lay in the range of 139 to 142 °C.

In turn, `CC1(C)N=C(c2cnc3ccccc3c2)c2cccc(F)c2OC1(C)C` [B1-43, 9-Fluoro-5-(3-quinolinyl)-2,2,3,3-tetramethyl-2,3-dihydro-benzo[f][1,4]oxazepine] yielded a melting point of 132 to 133 °C.

`CC1(C)N=C(c2cnc3c(F)cccc3c2)c2cccc(F)c2OC1(C)C` [B1-45, 9-Fluoro-5-(8-fluoro-quinolin-3-yl)-2,2,3,3-tetramethyl-2,3-dihydro-benzo[f][1,4]oxazepine] gave a melting point of 144 to 145 °C.

Consider `CC1(C)CN=C(c2cnc3c(Cl)cccc3c2)c2ccccc2O1` [B1-46, 5-(8-Chloro-quinolin-3-yl)-2,2-dimethyl-2,3-dihydro-benzo[f][1,4]oxazepine], for which the melting point is 155 to 157 °C.

For the molecule `CCC1(C)CN=C(c2cnc3c(F)cccc3c2)c2ccccc2O1` (stereo not drawn) [B1-47, 2-Ethyl-5-(8-fluoro-quinolin-3-yl)-2-methyl-2,3-dihydro-benzo[f][1,4]oxazepine], the melting point was 93 to 95 °C.

In turn, `CCC1(C)CN=C(c2cnc3c(F)cccc3c2)c2cccc(Cl)c2O1` (stereo not drawn) [B1-48, 9-Chloro-2-ethyl-5-(8-fluoro-quinolin-3-yl)-2-methyl-2,3-dihydro-benzo[f][1,4]oxazepine] had a melting point of 144 to 146 °C.

As to `CCC1(C)CN=C(c2cnc3c(F)cccc3c2)c2cccc(F)c2O1` (stereo not drawn) [B1-49, 2-Ethyl-9-fluoro-5-(8-fluoro-quinolin-3-yl)-2-methyl-2,3-dihydro-benzo[f][1,4]oxazepine], the melting point lay in the range of 140 to 142 °C.

The molecule `CC1(c2ccccc2)CN=C(c2cnc3ccccc3c2)c2ccccc2O1` (stereo not drawn) [B1-52, 2-Methyl-2-phenyl-5-quinolin-3-yl-2,3-dihydro-benzo[f][1,4]oxazepine] returned a melting point of 196 to 197 °C.

Molecule `COc1cccc2c1OC(C)(C)CN=C2c1cnc2ccccc2c1` [B1-55, 9-Methoxy-2,2-dimethyl-5-quinolin-3-yl-2,3-dihydro-benzo[f][1,4]oxazepine] had a melting point of 153 to 155 °C.

Take `CC1(C(F)(F)F)CN=C(c2cnc3c(F)cccc3c2)c2ccccc2O1` (stereo not drawn) [B1-56, 5-(8-Fluoro-quinolin-3-yl)-2-methyl-2-trifluoromethyl-2,3-dihydro-benzo[f][1,4]oxazepine]: the melting point fell in the range of 103 to 105 °C.

Turning to `CC1(C)CN=C(c2cnc3cccc(Cl)c3c2)c2cccc(Cl)c2O1` [B1-57, 9-Chloro-5-(5-chloro-quinolin-3-yl)-2,2-dimethyl-2,3-dihydro-benzo[f][1,4]oxazepine], the melting point fell in the range of 157 to 159 °C.

Turning to `Cc1cccc2ncc(C3=NCC(C)(C)Oc4c(Cl)cccc43)cc12` [B1-58, 9-Chloro-2,2-dimethyl-5-(5-methyl-quinolin-3-yl)-2,3-dihydro-benzo[f][1,4]oxazepine], the melting point fell in the range of 160 to 162 °C.

`Cc1ccc2ncc(C3=NCC(C)(C)Oc4c(Cl)cccc43)cc2c1` [B1-60, 9-Chloro-2,2-dimethyl-5-(6-methylquinolin-3-yl)-2,3-dihydro-benzo[f][1,4]oxazepine] displayed a melting point of 166 to 168 °C.

In turn, `c1ccc2c(c1)N=C(c1cnc3ccccc3c1)c1ccccc1O2` [B1-83, 11-Quinolin-3-yl-dibenzo[b,f][1,4]oxazepine] had a melting point of 182 to 184 °C.

In turn, `CC1(C)COc2cc(F)ccc2C(c2cnc3ccccc3c2)=N1` [B1-85, 8-Fluoro-3,3-dimethyl-5-quinolin-3-yl-2,3-dihydro-benzo[f][1,4]oxazepine] returned a melting point of 133 to 135 °C.

Molecule `CC1(C)CN=C(c2cnc3c(F)cccc3c2)c2ccccc2S1` [B2-13, 2,2-Dimethyl-5-(8-fluoro-quinolin-3-yl)-2,3-dihydro-benzo[f][1,4]thiazepine] had a melting point of 181 to 183 °C.

As to `CC1(C)CN=C(c2cnc3ccccc3c2)c2cccc(F)c2S1` [B2-14, 4-Fluoro-6,6-dimethyl-9-quinolin-3-yl-6,7-dihydro-5-thia-8-aza-benzocycloheptene], the melting point was in the range of 119 to 122 °C.

For `CC1(C)CN=C(c2cnc3c(F)cccc3c2)c2cccc(F)c2S1` [B2-15, 4-Fluoro-9-(8-fluoro-quinolin-3-yl)-6,6-dimethyl-6,7-dihydro-5-thia-8-aza-benzocycloheptene], the melting point is 179 to 181 °C.

Molecule `CC1(C)CN=C(c2cnc3ccccc3c2)c2ccccc2[S+]1[O-]` (stereo not drawn) [B2-16, 6,6-Dimethyl-9-quinolin-3-yl-6,7-dihydro-5-thia-8-aza-benzocycloheptene 5-oxide] returned a melting point of 118 to 120 °C.

In turn, `O=C1COc2ccccc2C(c2cnc3ccccc3c2)N1` (stereo not drawn) [B4-46, 5-Quinolin-3-yl-4,5-dihydro-benzo[f][1,4]oxazepin-3-one] showed a melting point of 225 to 227 °C.

Molecule `CC1(C)CNC(c2cnc3c(F)cccc3c2)c2cccc(F)c2O1` (stereo not drawn) [B4-47, 9-Fluoro-5-(8-fluoro-quinolin-3-yl)-2,2-dimethyl-2,3,4,5-tetrahydro-benzo[f][1,4]oxazepine] gave a melting point of 130 to 131 °C.

The molecule `CCN1CC(C)(C)Oc2c(F)cccc2C1c1cnc2c(F)cccc2c1` (stereo not drawn) [B4-48, 4-Ethyl-9-fluoro-5-(8-fluoro-quinolin-3-yl)-2,2-dimethyl-2,3,4,5-tetrahydro-benzo[f][1,4]oxazepine] registered a melting point of 117 to 118 °C.

As for `CC1(C)CNC(c2cnc3c(F)cccc3c2)c2cccc(Cl)c2O1` (stereo not drawn) [B4-49, 9-Chloro-5-(8-fluoro-quinolin-3-yl)-2,2-dimethyl-2,3,4,5-tetrahydro-benzo[f][1,4]oxazepine], the melting point lay within 133 to 134 °C.

For the molecule `CC1(C)CN(C=O)C(c2cnc3c(F)cccc3c2)c2cccc(F)c2O1` (stereo not drawn) [B4-51, 9-Fluoro-5-(8-fluoro-quinolin-3-yl)-2,2-dimethyl-2,3-dihydro-5H-benzo[f][1,4]oxazepine-4-carbaldehyde], the melting point fell in the range of 131 to 133 °C.

The molecule `CC(=O)N1CC(C)(C)Oc2c(F)cccc2C1c1cnc2c(F)cccc2c1` (stereo not drawn) [B4-52, 1-[9-Fluoro-5-(8-fluoro-quinolin-3-yl)-2,2-dimethyl-2,3-dihydro-5H-benzo[f][1,4]oxazepin-4-yl]-ethanone] showed a melting point of 132 to 134 °C.

For `CC1(C)Oc2ccccc2C(c2cnc3ccccc3c2)NC1=O` (stereo not drawn) [B4-53, 2,2-Dimethyl-5-quinolin-3-yl-4,5-dihydro-benzo[f][1,4]oxazepin-3-one], the melting point lay within 225 to 227 °C.

Another data set has as its system apple scab pathogen (Venturia inaequalis). Put plainly: Apple scab control test. The settings on record: 336 h, emulsion sprayed at 100 ppm active ingredient onto apple seedlings (Ralls Janet), lesions on leaves after 2 weeks vs untreated, read-out: control value. The class given is in vivo.
Regarding `CC1(C)CN=C(c2cnc3sccc3c2)c2cccc(Cl)c2O1` [A1-20, 9-Chloro-2,2-dimethyl-5-(thieno[2,3-b]pyridin-5-yl)-2,3-dihydro-benzo[f][1,4]oxazepine], the pest or weed control at 100 ppm was no less than 75%.

`c1ccc2c(c1)OCCN=C2c1cnc2ccccc2c1` [B1-1, 5-(3-Quinolinyl)-2,3-dihydro-benzo[f][1,4]oxazepine]: the pest or weed control at 100 ppm is no less than 75%.

As to `CC1(C(F)(F)F)CN=C(c2cnc3ccccc3c2)c2ccccc2O1` (stereo not drawn) [B1-51, 2-Methyl-5-quinolin-3-yl-2-trifluoromethyl-2,3-dihydro-benzo[f][1,4]oxazepine], the pest or weed control at 100 ppm is no less than 75%.

Regarding `CC1(Cc2ccc(F)cc2)CN=C(c2cnc3ccccc3c2)c2ccccc2O1` (stereo not drawn) [B1-53, 2-(4-Fluorobenzyl)-2-methyl-5-quinolin-3-yl-2,3-dihydro-benzo[f][1,4]oxazepine], the pest or weed control at 100 ppm was no less than 75%.

As for `CC1(C)CN=C(c2cnc3ccccc3c2)c2cccc(C#N)c2O1` [B1-54, 2,2-Dimethyl-5-quinolin-3-yl-2,3-dihydro-benzo[f][1,4]oxazepine-9-carbonitrile], the pest or weed control at 100 ppm was no less than 75%.

With `CC1(C(F)(F)F)CN=C(c2cnc3c(F)cccc3c2)c2ccccc2O1` (stereo not drawn) [B1-56, 5-(8-Fluoro-quinolin-3-yl)-2-methyl-2-trifluoromethyl-2,3-dihydro-benzo[f][1,4]oxazepine], the pest or weed control at 100 ppm was no less than 75%.
